The record followed here is PubChem BioAssay (NCI).

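In this assay, cells in 96-well plates receive the compound at five concentrations for 48 hours. Endpoints are linearly interpolated between the surrounding concentrations. The concentration for 50% growth inhibition is given as GI50. Definition used: TGI = concentration required for complete inhibition of growth.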 Bounds are passed on as bounds.

Some test systems named below: SF-268 CNS; OVCAR-8 ovarian; K-562 leukemia; SK-MEL-5 melanoma; RXF 393 renal; KM12 colon; NCI-H522 lung; OVCAR-4 ovarian; LOX IMVI melanoma; COLO 205 colon.
Holding throughout (assay): inhibition of tumour cell growth, NCI panel, 48 h

Consider `CCOC(=O)[C@@H](C)C[C@H](Cc1ccccc1)NC(=O)c1csc([C@@H](C[C@H](C(C)C)N(C)C(=O)[C@@H](NC(=O)[C@H]2C[C@H](O)CCN2C)C(C)C)OC(C)=O)n1`, for which the GI50 in the test on SF-268 CNS was 0.00881 µM; in the test on OVCAR-8 ovarian it was 0.0166 µM; in the test with K-562 leukemia it was 0.00252 µM; in the test on SK-MEL-5 melanoma, 0.00175 µM; with RXF 393 renal, 0.00955 µM; with KM12 colon, 0.0023 µM. In addition, the GI50 is under 0.00167 µM in the test with NCI-H522 lung, 0.0259 µM in the test with OVCAR-4 ovarian, 0.00422 µM in the test with LOX IMVI melanoma and under 0.00167 µM in the test with COLO 205 colon. In addition, the TGI was over 16.7 µM in the test with SF-268 CNS; over 16.7 µM with OVCAR-8 ovarian; over 16.7 µM in the test on K-562 leukemia; 0.13 µM in the test on SK-MEL-5 melanoma; 0.0367 µM with NCI-H522 lung; over 16.7 µM in the test on OVCAR-4 ovarian. Moreover, the TGI is over 16.7 µM in the test on LOX IMVI melanoma and 0.0143 µM with COLO 205 colon.
As to `O=C(O)c1ccc(C(=O)O)c(C(=O)O)c1.[NH-]C1CCCCC1[NH-].[Pt+2]`, the GI50 in the test with SF-268 CNS was 7.54 µM; with OVCAR-8 ovarian, 2.92 µM; in the test with SK-MEL-5 melanoma, 1.43 µM; with RXF 393 renal it was 9.32 µM; with KM12 colon, 14.3 µM; in the test on OVCAR-4 ovarian, 7.73 µM. The values for the GI50 in the test on LOX IMVI melanoma and in the test on COLO 205 colon were 3.45 µM and 3.73 µM, respectively. Besides, the TGI is over 87.4 µM in the test with SF-268 CNS; 60.8 µM in the test with OVCAR-8 ovarian; 88.9 µM in the test with K-562 leukemia; 14.5 µM in the test on SK-MEL-5 melanoma; 44.7 µM with RXF 393 renal; 74.6 µM with KM12 colon. Moreover, the TGI in the test with NCI-H522 lung came out at 24.7 µM; in the test on OVCAR-4 ovarian it was 50.2 µM; in the test on LOX IMVI melanoma, 68.2 µM; in the test on COLO 205 colon it was 40.7 µM.
For the compound `CC(=O)OCC1OC([Se-])C(OC(C)=O)C(OC(C)=O)C1OC(C)=O.N#CCC[PH+](CCC#N)CCC#N.[Au+]` (stereo unspecified), the GI50 is 10.1 µM in the test with SF-268 CNS; 12.7 µM in the test on OVCAR-8 ovarian; 3.55 µM with K-562 leukemia; 3.43 µM in the test on SK-MEL-5 melanoma; 3.14 µM in the test on RXF 393 renal; 10.3 µM in the test on KM12 colon. In addition, the GI50 was 5.75 µM in the test with NCI-H522 lung, 13.8 µM with OVCAR-4 ovarian, 4.34 µM with LOX IMVI melanoma and 17.6 µM in the test on COLO 205 colon. For the same compound, the TGI was over 100 µM with SF-268 CNS; over 93.5 µM with OVCAR-8 ovarian; 28.3 µM in the test on K-562 leukemia; 15.9 µM with SK-MEL-5 melanoma; over 100 µM in the test on RXF 393 renal; over 74.5 µM in the test with KM12 colon. Further, the TGI is 40.8 µM in the test on NCI-H522 lung, 65.8 µM in the test with OVCAR-4 ovarian, 28.9 µM with LOX IMVI melanoma and over 100 µM in the test with COLO 205 colon.
For `Cc1cc(=O)oc2cc(OC(=O)Nc3ccccc3)ccc12`, the TGI in the test on SF-268 CNS, in the test with OVCAR-8 ovarian, in the test with K-562 leukemia, with SK-MEL-5 melanoma, with RXF 393 renal and in the test with KM12 colon was over 100 µM each time. Moreover, the TGI with NCI-H522 lung, with OVCAR-4 ovarian, with LOX IMVI melanoma and in the test on COLO 205 colon was over 100 µM each time.
Regarding `Cc1cc2c(cc1C)[n+](=O)c(C(=O)CC(=O)C(=O)Nc1ccccc1C(C)C)c(C)n2[O-]`, the TGI with SF-268 CNS, in the test with OVCAR-8 ovarian, in the test on K-562 leukemia, in the test with SK-MEL-5 melanoma, in the test on RXF 393 renal and in the test on KM12 colon was over 100 µM throughout. Further, the TGI with NCI-H522 lung, in the test on OVCAR-4 ovarian, in the test with LOX IMVI melanoma and in the test on COLO 205 colon was over 100 µM throughout.
With `C/C(=N/NC(=S)N1CC2CCC(CC2)C1)c1cnccn1`, the TGI in the test with SF-268 CNS came out at 11 µM; with OVCAR-8 ovarian, 11.8 µM; in the test with K-562 leukemia, 0.472 µM; with SK-MEL-5 melanoma, 2.32 µM; with RXF 393 renal, 7.78 µM; with KM12 colon, 21 µM. Besides, the TGI worked out at 10.1 µM with NCI-H522 lung, 5.59 µM in the test on OVCAR-4 ovarian, 11.4 µM in the test on LOX IMVI melanoma and 10.9 µM with COLO 205 colon.
With `NC(=O)CCc1ccccc1Oc1nccc(-c2c(-c3ccc(F)cc3)ncn2C2CCNCC2)n1`, the GI50 in the test on SF-268 CNS, in the test on OVCAR-8 ovarian, with K-562 leukemia, in the test on SK-MEL-5 melanoma, with RXF 393 renal and with KM12 colon was over 25 µM throughout. The GI50 with NCI-H522 lung, in the test with OVCAR-4 ovarian, in the test with LOX IMVI melanoma and in the test on COLO 205 colon was over 25 µM in each case. Also, the TGI in the test on SF-268 CNS, with OVCAR-8 ovarian, with K-562 leukemia, in the test with SK-MEL-5 melanoma, in the test on RXF 393 renal and in the test with KM12 colon was over 25 µM in each case. Also, the TGI in the test on NCI-H522 lung, in the test on OVCAR-4 ovarian, in the test with LOX IMVI melanoma and in the test with COLO 205 colon was over 25 µM in each case.
Turning to `CCCCN(CC)CCCCCCCCCCN1CCCc2cc(OC)ccc21`, the GI50 with SF-268 CNS was 6.52 µM; in the test on OVCAR-8 ovarian, 3.92 µM; with K-562 leukemia, 2.21 µM; in the test on SK-MEL-5 melanoma, 1.73 µM; with RXF 393 renal, 2.34 µM; with KM12 colon, 2.31 µM. Besides, the GI50 in the test with NCI-H522 lung is 1.66 µM; in the test on OVCAR-4 ovarian, 4.33 µM; in the test with LOX IMVI melanoma, 1.7 µM; with COLO 205 colon it was 1.6 µM. Also, the TGI turned out to be 32.1 µM in the test with SF-268 CNS; 13.2 µM with OVCAR-8 ovarian; 5.69 µM in the test on K-562 leukemia; 3.12 µM in the test on SK-MEL-5 melanoma; 4.93 µM in the test with RXF 393 renal; 5.14 µM with KM12 colon. For the same compound, the TGI was found to be 3.5 µM in the test on NCI-H522 lung, 19.6 µM in the test on OVCAR-4 ovarian, 3.34 µM with LOX IMVI melanoma and 3.25 µM in the test on COLO 205 colon.
With `CCC(C)CC(C)C(=O)c1c(O)ccn(O)c1=O` (stereo unspecified), the GI50 is 1.29 µM in the test on SF-268 CNS; 0.626 µM in the test on OVCAR-8 ovarian; 0.631 µM in the test with K-562 leukemia; 1.53 µM with SK-MEL-5 melanoma; 2.33 µM in the test on RXF 393 renal; 3.37 µM in the test on KM12 colon. For the same compound, the GI50 in the test with NCI-H522 lung was 2.46 µM; with OVCAR-4 ovarian, 0.561 µM; in the test with LOX IMVI melanoma it was 0.804 µM; with COLO 205 colon, 38.3 µM. The TGI in the test on SF-268 CNS is 45.3 µM; with OVCAR-8 ovarian, over 100 µM; with K-562 leukemia it was over 100 µM; with SK-MEL-5 melanoma it was 6.1 µM; in the test on RXF 393 renal it was over 100 µM; with KM12 colon it was over 100 µM. Further, the TGI with NCI-H522 lung, in the test on OVCAR-4 ovarian, in the test with LOX IMVI melanoma and with COLO 205 colon was over 100 µM throughout.
